Measured values as given in PubChem BioAssay AID1963853 (Molecular Pharmacology Branch, DTP, NCI, 2024).

Test system: 266295-075-R-J1-PDC spheroid viability
Experiment: Anticancer human tumor 266295-075-R-J1-PDC patient-derived head and neck squamous carcinoma cell line growth inhibition [POLQ]
Conditions: spheroids with HUVEC and MSC; for IC50: curve of first compound; for viability, T/C: stronger effect = lower value
Summary of the method: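 PDC + HUVEC + MSC complex spheroids; POLQ inhibitors ± partner drugs; top conc. at/near clinical Cmax, else 10 microM (SN-38 1 microM), half-log dilutions; 37 degrees C, 5% CO2.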

[1] = second compound 0.0316 µM, first compound 0.0316 µM
[2] = second compound 0.0316 µM, first compound 0.1 µM
[3] = second compound 0.0316 µM, first compound 0.316 µM
[4] = second compound 0.0316 µM, first compound 1 µM
[5] = second compound 0.0316 µM, first compound 3.16 µM
[6] = second compound 0.0316 µM, first compound 10 µM
[7] = second compound 0.1 µM, first compound 0.0316 µM
[8] = second compound 0.1 µM, first compound 0.1 µM
[9] = second compound 0.1 µM, first compound 0.316 µM
[10] = second compound 0.1 µM, first compound 1 µM
[11] = second compound 0.1 µM, first compound 3.16 µM
[12] = second compound 0.1 µM, first compound 10 µM
[13] = second compound 0.316 µM, first compound 0.0316 µM
[14] = second compound 0.316 µM, first compound 0.1 µM
[15] = second compound 0.316 µM, first compound 0.316 µM
[16] = second compound 0.316 µM, first compound 1 µM
[17] = second compound 0.316 µM, first compound 3.16 µM
[18] = second compound 0.316 µM, first compound 10 µM
[19] = second compound 1 µM, first compound 0.0316 µM
[20] = second compound 1 µM, first compound 0.1 µM
[21] = second compound 1 µM, first compound 0.316 µM
[22] = second compound 1 µM, first compound 1 µM
[23] = second compound 1 µM, first compound 3.16 µM
[24] = second compound 1 µM, first compound 10 µM
[25] = second compound 3.16 µM, first compound 0.0316 µM
[26] = second compound 3.16 µM, first compound 0.1 µM
[27] = second compound 3.16 µM, first compound 0.316 µM
[28] = second compound 3.16 µM, first compound 1 µM
[29] = second compound 3.16 µM, first compound 3.16 µM
[30] = second compound 3.16 µM, first compound 10 µM
[31] = second compound 10 µM, first compound 0.0316 µM
[32] = second compound 10 µM, first compound 0.1 µM
[33] = second compound 10 µM, first compound 0.316 µM
[34] = second compound 10 µM, first compound 1 µM
[35] = second compound 10 µM, first compound 3.16 µM
[36] = second compound 10 µM, first compound 10 µM
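Also: spheroids exposed to compounds for seven days before readout.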

C#Cc1c(F)ccc2cc(O)cc(-c3ncc4c(N5CC6CCC(C5)N6)nc(OCC56CCCN5CC(F)C6)nc4c3F)c12 (stereo not drawn) + COC1C(OC(N)=O)C(O)C(Oc2ccc3c(O)c(NC(=O)c4ccc(O)c(CC=C(C)C)c4)c(=O)oc3c2C)OC1(C)C
IC50 (second compound 0.0316 µM): > 10 µM
IC50 (second compound 0.1 µM): > 10 µM
IC50 (second compound 0.316 µM): > 10 µM
IC50 (second compound 1 µM): > 10 µM
IC50 (second compound 3.16 µM): > 10 µM
IC50 (second compound 10 µM): > 10 µM
viability, T/C [1]: 97.4%
viability, T/C [2]: 79.1%
viability, T/C [3]: 69.6%
viability, T/C [4]: 65.3%
viability, T/C [5]: 60.8%
viability, T/C [6]: 58.2%
viability, T/C [7]: 94.9%
viability, T/C [8]: 84.9%
viability, T/C [9]: 74.9%
viability, T/C [10]: 60.1%
viability, T/C [11]: 71.6%
viability, T/C [12]: 54.2%
viability, T/C [13]: 100%
viability, T/C [14]: 88.5%
viability, T/C [15]: 87.8%
viability, T/C [16]: 68%
viability, T/C [17]: 67.3%
viability, T/C [18]: 60.3%
viability, T/C [19]: 91.3%
viability, T/C [20]: 78.1%
viability, T/C [21]: 80.1%
viability, T/C [22]: 87%
viability, T/C [23]: 65.2%
viability, T/C [24]: 56.9%
viability, T/C [25]: 94.6%
viability, T/C [26]: 77.8%
viability, T/C [27]: 79.5%
viability, T/C [28]: 67.7%
viability, T/C [29]: 60.4%
viability, T/C [30]: 54.3%
viability, T/C [31]: 96.9%
viability, T/C [32]: 91.9%
viability, T/C [33]: 79.1%
viability, T/C [34]: 64%
viability, T/C [35]: 70.2%
viability, T/C [36]: 55.7%

C=CC(=O)N1CCN(c2nc(=O)n(-c3c(C)ccnc3C(C)C)c3nc(-c4c(O)cccc4F)c(F)cc23)C(C)C1 (stereo not drawn) + Cc1cccc(N(C)C(=O)C2C(O)CCN2c2nc(C)cc(C(F)(F)F)c2C#N)c1
IC50 (second compound 0.0316 µM): > 10 µM
IC50 (second compound 0.1 µM): > 10 µM
IC50 (second compound 0.316 µM): > 10 µM
IC50 (second compound 1 µM): > 10 µM
IC50 (second compound 3.16 µM): > 10 µM
IC50 (second compound 10 µM): > 10 µM
viability, T/C [1]: 95.2%
viability, T/C [2]: 89.3%
viability, T/C [3]: 97%
viability, T/C [4]: 110%
viability, T/C [5]: 140%
viability, T/C [6]: 126%
viability, T/C [7]: 91.5%
viability, T/C [8]: 92.7%
viability, T/C [9]: 96.2%
viability, T/C [10]: 115%
viability, T/C [11]: 123%
viability, T/C [12]: 131%
viability, T/C [13]: 93.6%
viability, T/C [14]: 116%
viability, T/C [15]: 100%
viability, T/C [16]: 126%
viability, T/C [17]: 116%
viability, T/C [18]: 121%
viability, T/C [19]: 91.6%
viability, T/C [20]: 108%
viability, T/C [21]: 112%
viability, T/C [22]: 103%
viability, T/C [23]: 125%
viability, T/C [24]: 130%
viability, T/C [25]: 99.5%
viability, T/C [26]: 105%
viability, T/C [27]: 118%
viability, T/C [28]: 133%
viability, T/C [29]: 126%
viability, T/C [30]: 116%
viability, T/C [31]: 117%
viability, T/C [32]: 108%
viability, T/C [33]: 128%
viability, T/C [34]: 120%
viability, T/C [35]: 132%
viability, T/C [36]: 105%

Nc1ccn(C2OC(CO)C(O)C2(F)F)c(=O)n1 (stereo not drawn) + COC1C(OC(N)=O)C(O)C(Oc2ccc3c(O)c(NC(=O)c4ccc(O)c(CC=C(C)C)c4)c(=O)oc3c2C)OC1(C)C
IC50 (second compound 0.0316 µM): > 10 µM
IC50 (second compound 0.1 µM): > 10 µM
IC50 (second compound 0.316 µM): > 10 µM
IC50 (second compound 1 µM): > 10 µM
IC50 (second compound 3.16 µM): > 10 µM
IC50 (second compound 10 µM): > 10 µM
viability, T/C [1]: 109%
viability, T/C [2]: 82%
viability, T/C [3]: 77.3%
viability, T/C [4]: 101%
viability, T/C [5]: 81.3%
viability, T/C [6]: 77.9%
viability, T/C [7]: 107%
viability, T/C [8]: 91.9%
viability, T/C [9]: 82.6%
viability, T/C [10]: 84%
viability, T/C [11]: 91.1%
viability, T/C [12]: 75.2%
viability, T/C [13]: 100%
viability, T/C [14]: 85.9%
viability, T/C [15]: 90.8%
viability, T/C [16]: 82.4%
viability, T/C [17]: 78.7%
viability, T/C [18]: 77.1%
viability, T/C [19]: 104%
viability, T/C [20]: 78.1%
viability, T/C [21]: 87%
viability, T/C [22]: 84.5%
viability, T/C [23]: 93.6%
viability, T/C [24]: 87.4%
viability, T/C [25]: 105%
viability, T/C [26]: 102%
viability, T/C [27]: 89.6%
viability, T/C [28]: 81.8%
viability, T/C [29]: 85.3%
viability, T/C [30]: 83.2%
viability, T/C [31]: 109%
viability, T/C [32]: 87.2%
viability, T/C [33]: 84.6%
viability, T/C [34]: 97.6%
viability, T/C [35]: 82.3%
viability, T/C [36]: 84.9%

C#Cc1c(F)ccc2cc(O)cc(-c3ncc4c(N5CC6CCC(C5)N6)nc(OCC56CCCN5CC(F)C6)nc4c3F)c12 (stereo not drawn) + Cc1cccc(N(C)C(=O)C2C(O)CCN2c2nc(C)cc(C(F)(F)F)c2C#N)c1
IC50 (second compound 0.0316 µM): > 10 µM
IC50 (second compound 0.1 µM): > 10 µM
IC50 (second compound 0.316 µM): > 10 µM
IC50 (second compound 1 µM): > 10 µM
IC50 (second compound 3.16 µM): 6.48 µM
IC50 (second compound 10 µM): > 10 µM
viability, T/C [1]: 91.9%
viability, T/C [2]: 76.7%
viability, T/C [3]: 82.8%
viability, T/C [4]: 66.8%
viability, T/C [5]: 66.7%
viability, T/C [6]: 57%
viability, T/C [7]: 111%
viability, T/C [8]: 94.1%
viability, T/C [9]: 70%
viability, T/C [10]: 62.8%
viability, T/C [11]: 59.6%
viability, T/C [12]: 55.7%
viability, T/C [13]: 102%
viability, T/C [14]: 87.4%
viability, T/C [15]: 78.6%
viability, T/C [16]: 70.6%
viability, T/C [17]: 70.9%
viability, T/C [18]: 58.8%
viability, T/C [19]: 90.3%
viability, T/C [20]: 93.1%
viability, T/C [21]: 75.5%
viability, T/C [22]: 67.3%
viability, T/C [23]: 67.8%
viability, T/C [24]: 57.8%
viability, T/C [25]: 154%
viability, T/C [26]: 83.7%
viability, T/C [27]: 76.9%
viability, T/C [28]: 65.1%
viability, T/C [29]: 66.6%
viability, T/C [30]: 55.6%
viability, T/C [31]: 84.5%
viability, T/C [32]: 91.9%
viability, T/C [33]: 82.9%
viability, T/C [34]: 63.2%
viability, T/C [35]: 65.7%
viability, T/C [36]: 85%
